Source: patent publication US4101676A, “Diphenylpropylamines to treat depression” (Beecham Group Limited, priority 1973, dated 1978)
Structures can show the parent of a compound that is named as a salt.

Experiments:
[1] = system: reserpine hypothermia; assay: Prevention of Reserpine Hypothermia; assay type: in vivo, mice (Carworth Europe male); conditions: for Reserpine Prevention Δ^6: 6 hours; for Reserpine Prevention Δ^24: 24 hours; for effects on the Reserpine Prevention tests: comparison of the two isomers; for Δ^6 / Δ^24: mice, oral; for Δ^6: cumulative temperature difference from controls at 6 hours; for Δ^24: cumulative temperature difference from controls at 24 hours
Method: The method of Spencer [Antidepressant Drugs, 194 (1967) ] was used. Groups of ten mice are given oral doses of test compound 24 18 and 2 hours before an intravenous injection of reserpine base (Serpasil). Oral temperatures of the mice are taken immediately before administration of reserpine and then 2 4 6 and 24 hours afterwards.
Mean temperatures of groups given test compounds are compared with reserpinised controls using a Students t test. Compounds causing a significant difference at the level P < 0.001 are considered active. In order to quantify anti-reserpine activity cumulative temperature differences from controls at 6 hours and 24 hours (Δ^6 and Δ^24 ) are calculated.
(§1) Carworth Europe male mice are used for all experiments apart from that using the cat nictitating membrane and test compounds are administered orally as solutions in distilled water. Compounds for intravenous administration are dissolved in 0.9% saline apart from Reserpine which is dissolved in dilute acetic acid buffered to pH5. Unless otherwise stated, the dosing interval is one hour.
(§2) The Reserpine Prevention, Reserpine Reversal and Noradrenaline Uptake Inhibition tests were carried out as described in the previous Example. The Mydriasis tests was also as described in the previous Example but using 20 mg/kg doses of each compound after which a curve was plotted of percentage increase in pupil diameter vertus time and the percentage increase was integrated with respect to time for 0-120 minutes after dosing and the result expressed as a percentage.

[2] = system: reserpine hypothermia; assay: Reversal of Reserpine Hypothermia; assay type: in vivo, mice (Carworth Europe male)
Method: Seventeen hours later the oral temperatures of the mice are taken and various doses of test compound or vehicle given subcutaneously. Temperatures are taken 1, 2, 4 6 and 24 hours later and the results are analysed as in Test 1 (The subcutaneous route is used for convenience as the very depressed reserpinised mice cannot be reliably dosed orally).
as §1, §2

[3] = system: Noradrenaline uptake; assay: Inhibition of Noradrenaline Uptake in vitro (brain synaptosomes); assay type: biochemical, male Wistar rats; conditions: 10^-6 molar (Pharmacology 2)
Method: Synaptosomes are isolated from the brains of male Wistar rats (150-170g.) and monamine uptake determined by the method of Snyder and Coyle (1968) [Synder S. H. and Coyle J. T. J. Pharmac. exp. Ther. 165 (1968) 78-86]. Uptake was determined over a ten minute period instead of the normal five minutes.
as §2

[4] = system: pupil diameter (mydriasis); assay: Mydriasis integral 0-120 minutes; assay type: in vivo, mice; conditions: for Mydriasis Integral Percent 120 Mins.: mice, 20 mg/kg, 0-120 minutes
Method: Groups of five mice are pre-selected for uniformity of pupil diameter using a binocular microscope with a calibrated eye-piece. Pupil sizes are measured at various intervals after an intraperitoneal injection of test compound and at the peak time a curve plotted of percentage increase in pupil diameter versus log dose. From this the dose causing a 200% increase in pupil size (this lies on the linear part of the curve) is found
as §1, §2

[5] = system: pupil diameter (mydriasis, anticholinergic side effect); assay: Mydriatic Response in Mice (dose causing 200% increase in pupil size); assay type: in vivo
Method: Groups of five mice are pre-selected for uniformity of pupil diameter using a binocular microscope with a calibrated eye-piece. Pupil sizes are measured at various intervals after an intraperitoneal injection of test compound and at the peak time a curve plotted of percentage increase in pupil diameter versus log dose. […] Carworth Europe male mice are used for all experiments apart from that using the cat nictitating membrane and test compounds are administered orally as solutions in distilled water. […] Unless otherwise stated, the dosing interval is one hour.

[6] = target: T1, Guinea Pig Ileum (Cavia porcellus); assay: pA2 Determination on Guinea Pig Ileum (antagonism to Acetylcholine); conditions: in vitro, read-out: pA2 on Iillium (converted)
T1 construct: from tissue; host or cells: guinea pig ileum
From the text: It is thus a means of expressing anticholinergic activity which is independent of the dose of Acetylcholine and the piece of tissue used. The method used is similar to that of Schild, [Brit. J. Pharmacol. 14 (1959) 48] the tissue being bathed in Tyrode solution and a dose response curved for Acetylcholine being obtained.

[7] = Pharmacology 2, dose 10 (unit not given)
[8] = Pharmacology 2, dose 20 (unit not given)
[9] = Pharmacology 2, dose 40 (unit not given)
[10] = Pharmacology 2, dose 10 (unit not given), 6 hours
[11] = Pharmacology 2, dose 10 (unit not given), 24 hours
[12] = Pharmacology 2, dose 20 (unit not given), 6 hours
[13] = Pharmacology 2, dose 20 (unit not given), 24 hours
[14] = Pharmacology 2, dose 40 (unit not given), 6 hours
[15] = Pharmacology 2, dose 40 (unit not given), 24 hours

T1 sequence (H0W1Z3 1-590): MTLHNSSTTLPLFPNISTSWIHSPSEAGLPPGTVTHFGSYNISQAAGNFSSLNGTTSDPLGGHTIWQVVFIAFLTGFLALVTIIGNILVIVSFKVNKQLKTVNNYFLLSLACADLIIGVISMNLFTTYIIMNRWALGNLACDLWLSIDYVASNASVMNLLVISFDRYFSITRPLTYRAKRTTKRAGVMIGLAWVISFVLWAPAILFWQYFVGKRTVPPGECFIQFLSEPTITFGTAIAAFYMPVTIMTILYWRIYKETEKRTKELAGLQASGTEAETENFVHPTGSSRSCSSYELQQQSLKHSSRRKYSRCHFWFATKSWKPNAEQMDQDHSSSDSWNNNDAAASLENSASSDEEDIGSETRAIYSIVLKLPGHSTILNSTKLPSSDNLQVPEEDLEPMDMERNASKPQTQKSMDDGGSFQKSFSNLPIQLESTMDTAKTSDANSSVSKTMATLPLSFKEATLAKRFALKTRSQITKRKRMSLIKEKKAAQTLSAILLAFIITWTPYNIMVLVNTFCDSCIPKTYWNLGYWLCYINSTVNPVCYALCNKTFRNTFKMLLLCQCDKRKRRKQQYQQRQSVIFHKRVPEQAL

SMILES | Reserpine Prevention Δ^6 [1, 7] | Reserpine Prevention Δ^24 [1, 7] | Reserpine Prevention Δ^6 [1, 8] | Reserpine Prevention Δ^24 [1, 8] | Reserpine Prevention Δ^6 [1, 9] | Reserpine Prevention Δ^24 [1, 9] | Reserpine Reversal Δ^6 [2, 10] | Reserpine Reversal Δ^24 [2, 11] | Reserpine Reversal Δ^6 [2, 12] | Reserpine Reversal Δ^24 [2, 13] | Reserpine Reversal Δ^6 [2, 14] | Reserpine Reversal Δ^24 [2, 15] | Inhibition of Noradrenaline Uptake In Vitro % [3] | Mydriasis Integral Percent 120 Mins. [4] | Δ^6 ([1]; 30 mg/kg) | Δ^24 ([1]; 30 mg/kg) | other results
CN(C)CC(O)C(c1ccccc1)c1ccccc1 (racemic) [Compound A, (±) -3-Dimethylamino-1,1-diphenylpropan-2-ol] | 12 °C | 16 °C | 15 °C | 19 °C | 15 °C | 22 °C | 16 °C | 20 °C | 14 °C | 17 °C | 15 °C | 20 °C | 63% | 7400% | – | – | –
CN(C)CC(O)C(c1ccccc1)c1ccccc1 (racemic) [Compound B, (+)-3-Dimethylamino-1,1-diphenyl-propan-2-ol] | 12 °C | 15 °C | 16 °C | 23 °C | 16 °C | 25 °C | 16 °C | 27 °C | 15 °C | 19 °C | 13 °C | 19 °C | 40% | 12600% | – | – | effects on the Reserpine Prevention tests [1]: roughly equal effects; activity on the Reserpine Reversal Test ([2]; low doses, (+)-isomer versus (-)-isomer): more active than the (-)-isomer on the Reserpine Reversal Test at low doses
CN(C)CC(O)C(c1ccccc1)c1ccccc1 (single isomer, unassigned; (-)) [Compound C, (-)-3-Dimethylamino-1,1-diphenylpropan-2-ol] | 11 °C | 17 °C | 13 °C | 19 °C | 12 °C | 19 °C | 6 °C | 3 °C | 16 °C | 19 °C | 13 °C | 20 °C | 64% | 6700% | – | – | effects on the Reserpine Prevention tests [1]: roughly equal effects; peripheral anticholinergic effects ([4]; (-)-isomer versus (+)-isomer): fewer peripheral anticholinergic effects than the (+)-isomer
CN(C)CCC=C1c2ccccc2CCc2ccccc21 [Amitriptyline hydrochloride, reference compound] | – | – | – | – | – | – | – | – | – | – | – | – | – | – | 12 °C | 22 °C | Mydriasis-Dose to cause 200% effect ([5]; mouse, in vivo, ip): 6 mg/kg
CCN(CC)CC(O)C(c1ccccc1)c1ccccc1 (centres unmarked) [C2H5 C2H5 H H H HCl] | – | – | – | – | – | – | – | – | – | – | – | – | – | – | 11 °C | 11 °C | –
CN(Cc1ccccc1)CC(O)C(c1ccccc1)c1ccc(F)cc1 (centres unmarked) [CH2C6H5 CH3 H H F, 3-(N-Benzyl,N-methylamino)-1-p-fluorophenyl-1-phenylpropan-2-ol] | – | – | – | – | – | – | – | – | – | – | – | – | – | – | 9 °C | 11 °C | –
CN(Cc1ccccc1)CC(O)C(c1ccccc1)c1ccccc1 (centres unmarked) [CH2C6H5 CH3 H H H HCl, 3-(N-Benzyl-N-methylamino)-1,1-diphenyl-propan-2-ol] | – | – | – | – | – | – | – | – | – | – | – | – | – | – | 10 °C | 11 °C | –
Cc1ccccc1C(c1ccccc1)C(O)CN(C)C (centres unmarked) [CH3 CH3 CH3 H H HCl, 3-Dimethylamino-1-phenyl-1-o-tolyl-propan-2-ol] | – | – | – | – | – | – | – | – | – | – | – | – | – | – | 11 °C | 14 °C | –
CN(C)CC(O)C(c1ccccc1)c1cccc(Cl)c1 (centres unmarked) [CH3 CH3 H Cl H HCl, 3-Dimethylamino-1-m-chlorophenyl-1-phenyl-propan-2-ol] | – | – | – | – | – | – | – | – | – | – | – | – | – | – | – | – | Δ^6 ([1]; 20 mg/kg): 10 °C; Δ^24 ([1]; 20 mg/kg): 17 °C
CN(C)CC(O)C(c1ccccc1)c1ccc(Cl)cc1 (centres unmarked) [CH3 CH3 H H Cl, 3-Dimethylamino-1-p-chlorophenyl-1-phenyl-propan-2-ol] | – | – | – | – | – | – | – | – | – | – | – | – | – | – | 13 °C | 22 °C | Δ^6 ([2]; mice, subcutaneous, 30 mg/kg, 6 hours): 9 °C; Δ^24 ([2]; mice, subcutaneous, 30 mg/kg, 24 hours): 11 °C; Mydriasis-Dose to cause 200% effect ([5]; mice, intraperitoneal, at peak time): 40 mg/kg; Kb [6]: 10 µM
